Laboratory results published in US8124807B2, “Sulfonyl-substituted 6-membered ring derivative” (MSD K.K., priority 2007, dated 2012).

target: T1, human LCE (Homo sapiens, UniProt Q9H5J4); test: LCE enzyme activity-inhibitory test; assay type: biochemical; conditions: palmitoyl CoA and [14C]-malonyl CoA substrates, pH 6.5, 37° C., 90 minutes
T1 sequence (Q9H5J4 1-265): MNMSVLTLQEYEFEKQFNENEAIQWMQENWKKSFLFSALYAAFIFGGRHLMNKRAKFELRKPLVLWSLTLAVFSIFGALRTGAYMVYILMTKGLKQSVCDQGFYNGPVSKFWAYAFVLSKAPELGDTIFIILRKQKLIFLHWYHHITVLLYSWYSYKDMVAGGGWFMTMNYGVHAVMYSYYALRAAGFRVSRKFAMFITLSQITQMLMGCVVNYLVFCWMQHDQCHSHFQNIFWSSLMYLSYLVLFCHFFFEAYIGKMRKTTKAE
Method: A test compound was dissolved in dimethyl sulfoxide (DMSO to be 10 mM), and then diluted with DMSO to prepare a 1000-fold concentrated solution of the test concentration. An improved Moon et al's method (J. Biol. Chem., Vol. 276, pp. 45358-45366, 2001) was employed for the LCE enzyme activity-inhibitor test. Concretely, the diluted compound was applied to a 96-well assay plate (Corning, 96-well assay block) in an amount of 1.0 μL/well; 50 μL of a phosphate buffer solution (100 mM potassium phosphate buffer, pH 6.5), and 25 μL of a substrate solution (100 mM potassium phosphate buffer (pH 6.5), 4.0 μM rotenone, 80 μM fatty acid-free bovine serum albumin, 160 μM palmitoyl CoA, 80 μM malonyl CoA, 3.5 μM [^14C]-malonyl CoA (1.92 GBq/mmol, by Amersham)) were added to each well; 25 μL of an enzyme solution (100 mM potassium phosphate buffer (pH 6.5), 100 μg/mL human LCE) was added thereto; the top of the plate was airtightly sealed up; and this was incubated with gently shaking and stirring at 37° C. for 90 minutes. Next, 100 μL of 5 N hydrochloric acid was added to each well, and the assay plate was stirred at room temperature for 5 minutes to stop the enzyme reaction with hydrolyzing the acyl CoA. Next, the enzyme reaction solution in each well was adsorbed by each well of a 96-well GF/C filter plate (Perkin Elmer Unifilter 96 GF/C); the individual wells were washed with water to remove the non-adsorbed malonyl CoA; and the GF/C filter plate was dried at 50° C. for 60 minutes. Next, 30 μL of a scintillator (Perkin Elmer Microscinti 0) was added to each well; then the top of the plate was sealed up; and the fixed [^14C] radioactivity was measured with a microplate scintillation counter (Perkin Elmer TopCount) to be the enzyme activity. The human LCE enzyme-inhibitory activity of the test compound was calculated, based on the radioactivity of the DMSO-added well with no test compound therein as a control.

Row | SMILES | IC50 [nM]
1 | CC(C)Oc1ccc(NC(=O)[C@@H]2CCC[C@@H](S(=O)(=O)c3ccncc3)C2)nc1 (racemic) [Example 9, (1R*,3R*)-N-(5-isopropoxypyridin-2-yl)-3-(pyridin-4-ylsulfonyl)cyclohexanecarboxamide] | 131
2 | CC(C)Oc1ccc(NC(=O)[C@@H]2CCC[C@@H](S(=O)(=O)c3ccccn3)C2)nc1 (racemic) [Example 8, (1R*,3R*)-N-(5-isopropoxypyridin-2-yl)-3-(pyridin-2-ylsulfonyl)cyclohexanecarboxamide] | 43
3 | CC(C)Oc1ccc(NC(=O)[C@@H]2CCC[C@@H](S(=O)(=O)c3ccccn3)C2)cc1 (racemic) [Example 2, (1R*,3R*)-N-(4-isopropoxyphenyl)-3-(pyridin-2-ylsulfonyl)cyclohexanecarboxamide] | 233
4 | CC(C)Oc1ccc(NC(=O)[C@@H]2CCC[C@@H](S(=O)(=O)c3cnccn3)C2)nc1 (racemic) [Example 13, (1R*,3R*)-N-(5-isopropoxypyridin-2-yl)-3-(pyrazin-2-ylsulfonyl)cyclohexanecarboxamide] | 130

Now those with a lower IC50, led by results:

Row | IC50 [nM] | SMILES
5 | 32 | CC(C)Oc1ccc(NC(=O)[C@@H]2CCC[C@@H](S(=O)(=O)c3nccs3)C2)nc1 (racemic) [Example 11, (1R*,3R*)-N-(5-isopropoxypyridin-2-yl)-3-(1,3-thiazol-2-ylsulfonyl)cyclohexanecarboxamide]
6 | 30 | CC(C)Oc1ccc(NC(=O)[C@@H]2CCC[C@@H](S(=O)(=O)c3ccccc3)C2)nc1 (racemic) [Example 7, (1R*,3R*)-N-(5-isopropoxypyridin-2-yl)-3-(phenylsulfonyl)cyclohexanecarboxamide]
7 | 26 | CC(C)Oc1ccc(NC(=O)[C@@H]2CCC[C@@H](S(=O)(=O)c3ncccn3)C2)nc1 (racemic) [Example 10, (1R*,3R*)-N-(5-isopropoxypyridin-2-yl)-3-(pyrimidin-2-ylsulfonyl)cyclohexanecarboxamide]
